Results as given in ChEMBL document CHEMBL1201862, “PubChem BioAssay data set” (2004).
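Five concentrations, 48 hours, 96-well plates. The concentration for 50% growth inhibition is given as GI50.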 Calls of active or inactive are those of the source. Cut-off read from the data, not from the text of the source: active = GI50 up to about 1.1 µM and inactive = higher.

How the values were obtained:
Assay in all cases: inhibition of tumour cell growth, NCI panel, 48 h
BT-549 = test system: BT-549
CAKI-1 = test system: CAKI-1
COLO 205 = test system: COLO 205
DU-145 = test system: DU-145
EKVX = test system: EKVX
HCC 2998 = test system: HCC 2998
HCT-15 = test system: HCT-15
HOP-62 = test system: HOP-62
IGROV-1 = test system: IGROV-1
K562 = test system: K562
MDA-MB-231 = test system: MDA-MB-231
MDA-N = test system: MDA-N
MOLT-4 = test system: MOLT-4
NCI-H23 = test system: NCI-H23
OVCAR-8 = test system: OVCAR-8
SK-MEL-28 = test system: SK-MEL-28
SK-MEL-2 = test system: SK-MEL-2
SW-620 = test system: SW-620
T47D = test system: T47D
U-251 = test system: U-251

Q: For CN(C)S(=O)(=O)c1nc(Cl)c2nc[nH]c2n1, which GI50 (BT-549) is on record?
A: > 100 µM (inactive)

Q: What about the GI50 (CAKI-1) of the same molecule?
A: > 100 µM (inactive)

Q: What about the GI50 (COLO 205) of the same molecule?
A: > 100 µM (inactive)

Q: And the GI50 (DU-145)?
A: > 100 µM (inactive)

Q: And the GI50 (EKVX)?
A: > 100 µM (inactive)

Q: And the GI50 (HCC 2998)?
A: > 100 µM (inactive)

Q: What about the GI50 (HCT-15) of the same molecule?
A: > 100 µM

Q: What about the GI50 (HOP-62) of the same molecule?
A: > 100 µM (inactive)

Q: What about the GI50 (IGROV-1) of the same molecule?
A: > 100 µM (inactive)

Q: And the GI50 (K562)?
A: > 100 µM (inactive)

Q: And the GI50 (MDA-MB-231)?
A: > 100 µM (inactive)

Q: What about the GI50 (MDA-N) of the same molecule?
A: > 100 µM (inactive)

Q: What about the GI50 (MOLT-4) of the same molecule?
A: > 100 µM (inactive)

Q: And the GI50 (NCI-H23)?
A: > 100 µM (inactive)

Q: And the GI50 (OVCAR-8)?
A: > 100 µM (inactive)

Q: What about the GI50 (SK-MEL-28) of the same molecule?
A: > 100 µM (inactive)

Q: And the GI50 (SK-MEL-2)?
A: > 100 µM (inactive)

Q: What about the GI50 (SW-620) of the same molecule?
A: > 100 µM (inactive)

Q: And the GI50 (T47D)?
A: > 100 µM (inactive)

Q: And the GI50 (U-251)?
A: > 100 µM (inactive)

Q: Which GI50 (BT-549) does the source give for CC1(C)Oc2ccc(Cl)cc2C12CC2 here?
A: 21.1 µM (inactive)

Q: And the GI50 (CAKI-1)?
A: 15.6 µM (inactive)

Q: And the GI50 (COLO 205)?
A: 14 µM (inactive)

Q: And the GI50 (DU-145)?
A: 15.8 µM (inactive)

Q: And the GI50 (EKVX)?
A: 10.8 µM (inactive)

Q: What about the GI50 (HCC 2998) of the same molecule?
A: 15.8 µM (inactive)

Q: And the GI50 (HCT-15)?
A: 17.1 µM

Q: And the GI50 (HOP-62)?
A: 18.2 µM (inactive)

Q: And the GI50 (IGROV-1)?
A: 14.7 µM (inactive)

Q: What about the GI50 (K562) of the same molecule?
A: 15.5 µM (inactive)

Q: What about the GI50 (MDA-MB-231) of the same molecule?
A: 16.6 µM (inactive)

Q: What about the GI50 (MDA-N) of the same molecule?
A: 17.8 µM (inactive)

Q: What about the GI50 (MOLT-4) of the same molecule?
A: 17.1 µM (inactive)

Q: What about the GI50 (NCI-H23) of the same molecule?
A: 20.1 µM (inactive)

Q: What about the GI50 (OVCAR-8) of the same molecule?
A: 14.7 µM (inactive)

Q: What about the GI50 (SK-MEL-28) of the same molecule?
A: 17.9 µM (inactive)

Q: And the GI50 (SK-MEL-2)?
A: 16 µM (inactive)

Q: What about the GI50 (SW-620) of the same molecule?
A: 11.8 µM (inactive)

Q: And the GI50 (T47D)?
A: 22.6 µM (inactive)

Q: And the GI50 (U-251)?
A: 15.3 µM (inactive)

Q: Which results are given for CC(C)C1=CC(=O)C(C)(C2C(O)CC3(C)C4CC=C5C(CCC(OC6OC(CO)C(O)C(O)C6OC6OC(C)C(O)C(O)C6O)C5(C)C)C4(C)C(=O)CC23C)O1 (centres undefined)?
A: GI50 (BT-549): > 100 µM (inactive); GI50 (CAKI-1): > 100 µM (inactive); GI50 (COLO 205): > 100 µM (inactive); GI50 (DU-145): > 100 µM (inactive); GI50 (EKVX): > 100 µM (inactive); GI50 (HCC 2998): > 100 µM (inactive); GI50 (HCT-15): > 100 µM; GI50 (HOP-62): > 100 µM (inactive); GI50 (IGROV-1): > 100 µM (inactive); GI50 (K562): > 100 µM (inactive); GI50 (MDA-MB-231): > 100 µM (inactive); GI50 (MDA-N): > 100 µM (inactive); GI50 (MOLT-4): > 100 µM (inactive); GI50 (NCI-H23): > 100 µM (inactive); GI50 (OVCAR-8): > 100 µM (inactive); GI50 (SK-MEL-28): > 100 µM (inactive); GI50 (SW-620): > 100 µM (inactive); GI50 (T47D): > 100 µM (inactive); GI50 (U-251): > 100 µM (inactive)

Q: For Cc1ccc(/C=c2\c(=O)[nH]c3nc4ccccc4c(=O)n23)cc1, which GI50 (BT-549) is on record?
A: 21.6 µM (inactive)

Q: And the GI50 (CAKI-1)?
A: > 100 µM (inactive)

Q: What about the GI50 (COLO 205) of the same molecule?
A: 18.3 µM (inactive)

Q: What about the GI50 (DU-145) of the same molecule?
A: 53 µM (inactive)

Q: What about the GI50 (HCC 2998) of the same molecule?
A: 25.4 µM (inactive)

Q: And the GI50 (HCT-15)?
A: 34.8 µM

Q: And the GI50 (HOP-62)?
A: > 100 µM (inactive)

Q: And the GI50 (MDA-MB-231)?
A: 43.9 µM (inactive)

Q: What about the GI50 (MDA-N) of the same molecule?
A: 23.8 µM (inactive)

Q: What about the GI50 (MOLT-4) of the same molecule?
A: 38.8 µM (inactive)

Q: What about the GI50 (NCI-H23) of the same molecule?
A: 34.4 µM (inactive)

Q: What about the GI50 (OVCAR-8) of the same molecule?
A: 40.9 µM (inactive)

Q: What about the GI50 (SK-MEL-28) of the same molecule?
A: 43.9 µM (inactive)

Q: What about the GI50 (SK-MEL-2) of the same molecule?
A: 62.2 µM (inactive)

Q: What about the GI50 (SW-620) of the same molecule?
A: 21.8 µM (inactive)

Q: And the GI50 (T47D)?
A: 41.9 µM (inactive)

Q: And the GI50 (U-251)?
A: 19.9 µM (inactive)

Q: Which GI50 (BT-549) does the source give for O=C(NCCCNCCCNC(=O)c1cc(-c2ccccc2)nc2ccccc12)c1cc(-c2ccccc2)nc2ccccc12 here?
A: 10.2 µM (inactive)

Q: What about the GI50 (CAKI-1) of the same molecule?
A: 1.9 µM (inactive)

Q: What about the GI50 (COLO 205) of the same molecule?
A: 1.9 µM (inactive)

Q: What about the GI50 (DU-145) of the same molecule?
A: 1.59 µM (inactive)

Q: And the GI50 (EKVX)?
A: 1.68 µM (inactive)

Q: What about the GI50 (HCC 2998) of the same molecule?
A: 0.834 µM (active)

Q: And the GI50 (HCT-15)?
A: 2.6 µM

Q: What about the GI50 (HOP-62) of the same molecule?
A: 1.11 µM (active)

Q: What about the GI50 (IGROV-1) of the same molecule?
A: 1.88 µM (inactive)

Q: And the GI50 (K562)?
A: 1.79 µM (inactive)

Q: What about the GI50 (MDA-MB-231) of the same molecule?
A: 2.01 µM (inactive)

Q: And the GI50 (MDA-N)?
A: 1.89 µM (inactive)

Q: What about the GI50 (NCI-H23) of the same molecule?
A: 1.86 µM (inactive)

Q: What about the GI50 (OVCAR-8) of the same molecule?
A: 2.56 µM (inactive)

Q: And the GI50 (SK-MEL-28)?
A: 1.77 µM (inactive)

Q: What about the GI50 (SK-MEL-2) of the same molecule?
A: 2 µM (inactive)

Q: What about the GI50 (SW-620) of the same molecule?
A: 2.39 µM (inactive)

Q: What about the GI50 (T47D) of the same molecule?
A: 2.02 µM (inactive)

Q: And the GI50 (U-251)?
A: 1.69 µM (inactive)

Q: Which GI50 (BT-549) does the source give for CC(C)(C)n1[nH]c(=O)n(C(C)(C)C)c1=O here?
A: > 100 µM (inactive)

Q: What about the GI50 (CAKI-1) of the same molecule?
A: > 100 µM (inactive)

Q: And the GI50 (COLO 205)?
A: > 100 µM (inactive)

Q: What about the GI50 (DU-145) of the same molecule?
A: > 100 µM (inactive)

Q: What about the GI50 (HCC 2998) of the same molecule?
A: > 100 µM (inactive)

Q: And the GI50 (HCT-15)?
A: > 100 µM

Q: And the GI50 (K562)?
A: > 100 µM (inactive)

Q: And the GI50 (MDA-MB-231)?
A: > 100 µM (inactive)

Q: What about the GI50 (MDA-N) of the same molecule?
A: > 100 µM (inactive)

Q: What about the GI50 (MOLT-4) of the same molecule?
A: > 100 µM (inactive)

Q: And the GI50 (NCI-H23)?
A: > 100 µM (inactive)

Q: What about the GI50 (SK-MEL-28) of the same molecule?
A: > 100 µM (inactive)

Q: And the GI50 (SK-MEL-2)?
A: > 100 µM (inactive)

Q: And the GI50 (SW-620)?
A: > 100 µM (inactive)

Q: And the GI50 (T47D)?
A: > 100 µM (inactive)

Q: What about the GI50 (U-251) of the same molecule?
A: > 100 µM (inactive)

Q: With CCN1C=C/C(=C\C=C\c2cc[n+](CC)c3ccccc23)c2ccccc21 as the molecule, how does the GI50 (BT-549) read?
A: 20.7 µM (inactive)

Q: And the GI50 (COLO 205)?
A: 3.72 µM (inactive)

Q: And the GI50 (DU-145)?
A: 4.92 µM (inactive)

Q: And the GI50 (EKVX)?
A: 18.9 µM (inactive)

Q: What about the GI50 (HCC 2998) of the same molecule?
A: 7.24 µM (inactive)

Q: What about the GI50 (HCT-15) of the same molecule?
A: 16.4 µM

Q: What about the GI50 (HOP-62) of the same molecule?
A: 3.24 µM (inactive)

Q: And the GI50 (IGROV-1)?
A: 3.59 µM (inactive)

Q: What about the GI50 (MDA-MB-231) of the same molecule?
A: 3.31 µM (inactive)

Q: What about the GI50 (MDA-N) of the same molecule?
A: 7.01 µM (inactive)

Q: What about the GI50 (MOLT-4) of the same molecule?
A: 3.2 µM (inactive)

Q: What about the GI50 (NCI-H23) of the same molecule?
A: 2.87 µM (inactive)

Q: What about the GI50 (OVCAR-8) of the same molecule?
A: 4.28 µM (inactive)

Q: What about the GI50 (SK-MEL-28) of the same molecule?
A: 8.99 µM (inactive)

Q: And the GI50 (SK-MEL-2)?
A: 7.62 µM (inactive)

Q: And the GI50 (SW-620)?
A: 4.62 µM (inactive)

Q: What about the GI50 (T47D) of the same molecule?
A: 5.93 µM (inactive)

Q: And the GI50 (U-251)?
A: 3.8 µM (inactive)
